Test results taken from patent publication US20250162989A1, “USP30 INHIBITORS AND USES THEREOF” (Vincere Biosciences, Inc., priority 2021, published 2025).

Molecular target: recombinant USP30 (amino acids 57-517 of the human sequence) (Homo sapiens (Human), UniProt Q70CQ3)
Assay: In vitro USP30 biochemical assay (Ubiquitin-Rhodamine substrate)
Details: fluorescence
Description: In vitro biochemical assay to establish the potency of compounds for USP30 inhibition: a 384-well plate assay using a fluorophore tagged substrate of USP30 was used for in vitro screening of compounds. Each compound was tested at
10 different concentrations (0.5 to 10,000 nM) in duplicate wells. […] Data were analyzed using Graph Pad Prism software with a four-parameter (floating slope) fit to log concentration data to determine IC50s.

[1] = […] recombinant USP30, 25 nM Ubiquitin-Rhodamine
[2] = 1.5 nM recombinant USP30, 25 nM Ubiquitin-Rhodamine

Sequence of recombinant USP30 (amino acids 57-517 of the human sequence) (Q70CQ3 57-517): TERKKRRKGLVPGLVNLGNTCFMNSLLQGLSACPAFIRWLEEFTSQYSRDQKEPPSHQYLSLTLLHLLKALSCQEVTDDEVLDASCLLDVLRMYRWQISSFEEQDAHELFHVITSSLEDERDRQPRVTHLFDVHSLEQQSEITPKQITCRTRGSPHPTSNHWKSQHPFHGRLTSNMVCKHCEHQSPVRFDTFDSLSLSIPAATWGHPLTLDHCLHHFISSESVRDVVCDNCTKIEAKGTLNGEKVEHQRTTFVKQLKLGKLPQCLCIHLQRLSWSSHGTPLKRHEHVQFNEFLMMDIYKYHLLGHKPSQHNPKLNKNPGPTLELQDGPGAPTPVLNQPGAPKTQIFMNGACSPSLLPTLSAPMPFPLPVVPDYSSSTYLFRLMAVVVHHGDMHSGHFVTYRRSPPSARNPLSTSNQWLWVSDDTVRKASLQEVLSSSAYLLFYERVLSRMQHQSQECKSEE

Work on `CC(C)C[C@H](NC(=O)c1ccc(F)cc1)C(=O)Nc1ccc(S(=O)(=O)NC(C)(C)C)nc1` [Compound I-16] yielded an IC50 [1] of under 0.05 µM.

`CCN1CCC(C[C@H](NC(=O)c2ccc(F)cc2)C(=O)Nc2ccc(S(=O)(=O)NC(C)(C)CO)cc2)CC1` [Compound I-45] gave an IC50 [2] of 0.05 to 1 µM.

With `CC(C)(C)NS(=O)(=O)c1ccc(NC(=O)[C@H](CC2CCN(C(=O)OCc3ccccc3)CC2)NC(=O)c2ccc(F)cc2)cc1` [Compound I-43, benzyl (S)-4-(3-((4-(N-(tert-butyl)sulfamoyl)phenyl)amino)-2-(4-fluorobenzamido)-3-oxopropyl)piperidine-1-carboxylate] the IC50 [2] was 0.05 to 1 µM.

`CC(C)(C)NS(=O)(=O)c1ccc(NC[C@H](O)[C@H](Cc2ccncc2)NC(=O)c2ccc(F)cc2)cc1` [Compound I-236] was tested, and the IC50 [2] was 0.05 to 1 µM.

With `CC(C)(C)NC(=O)N1CCC(NC(=O)[C@H](Cc2ccccc2)NC(=O)c2ccc(F)cc2)CC1` [Compound I-57, (S)—N-(tert-butyl)-4-(2-(4-fluorobenzamido)-3-phenylpropanamido)piperidine-1-carboxamide] the IC50 [2] was 1 to 10 µM.

Compound `O=C(N[C@@H](Cc1ccccc1)C(=O)N[C@@H]1CCN(S(=O)(=O)NC2COC2)C1)c1ccc(F)cc1` [Compound I-169] has an IC50 [1] of over 10 µM.

`CC(C)(C)NS(=O)(=O)N1CC[C@@H](NC(=O)[C@H](Cc2ccccc2)NC(=O)c2ccc(F)cc2)C1` [Compound I-162] showed an IC50 [1] of over 10 µM.

Compound `CNS(=O)(=O)N1CCC(NC(=O)[C@H](Cc2ccccc2)NC(=O)c2ccc(F)cc2)CC1` [Compound I-118] has an IC50 [1] of over 10 µM.

`CC(C)(C)NS(=O)(=O)c1ccc(NC(=O)[C@H](Cc2ccccc2)NC(=O)c2ccc3nc[nH]c3c2)cc1` [Compound I-194] was tested, and the IC50 [2] was 1 to 10 µM.

`O=C(Nc1ccc(S(=O)(=O)N[C@@H]2CCOC2)cc1)[C@@H]1C[C@@H](c2ccccc2)CN1C(=O)c1ccc(F)cc1` [Compound I-92] showed an IC50 [1] of 1 to 10 µM.

For `CC(C)(C)NS(=O)(=O)c1cccc2c(NC(=O)[C@H](CC3CCOCC3)NC(=O)c3ccc(F)cc3)cccc12` [Compound I-8, (S)—N-(1-((5-(N-(tert-butyl)sulfamoyl)naphthalen-1-yl)amino)-1-oxo-3-(tetrahydro-2H-pyran-4-yl)propan-2-yl)-4-fluorobenzamide], the IC50 [1] was under 0.05 µM.

For `CC(C)(C)NS(=O)(=O)c1cccc2c(NC[C@H](O)[C@H](Cc3ccccc3)NC(=O)c3ccc(F)cc3)cccc12` [Compound I-211], the IC50 [1] was over 10 µM.

`CC(C)(C)NS(=O)(=O)c1ccc(NC(=O)[C@H](CC2CCOCC2)NC(=O)c2ccc(F)cc2)cn1` [Compound I-4] showed an IC50 [1] of under 0.05 µM.

For `O=C(N[C@@H](Cc1ccccc1)C(=O)N[C@@H]1CCN(S(=O)(=O)NC2CCOC2)C1)c1ccc(F)cc1` (some centres unmarked) [Compound I-170], the IC50 [1] was over 10 µM.

Compound `CO[C@@H]1C[C@@H](C(=O)Nc2ccc(S(=O)(=O)NC(C)(C)CO)cc2)N(C(=O)c2ccc(F)cc2)C1` [Compound I-268] has an IC50 [1] of over 10 µM.

Compound `CC(C)C[C@H](NC(=O)c1ccc(F)cc1)C(=O)NC1CN(C#N)C1` [Compound I-251] has an IC50 [1] of under 0.05 µM.

With `CO[C@@H]1C[C@@H](C(=O)Nc2ccc(S(=O)(=O)N[C@@H]3CCOC3)cc2)N(C(=O)c2ccc(F)cc2)C1` [Compound I-277] the IC50 [2] was 0.05 to 1 µM.

`CC(C)(C)NS(=O)(=O)c1ccc(NC(=O)C2CCCCN2C(=O)c2ccc(F)cc2)cc1` (centres unmarked) [Compound I-245] gave an IC50 [1] of over 10 µM.

In the case of `COCC[C@H](NC(=O)c1ccc(F)cc1)C(=O)Nc1ccc(S(=O)(=O)NC2COC2)cc1` [Compound I-28], the IC50 [2] is reported as 1 to 10 µM.

With `CC(C)(C)NS(=O)(=O)c1ccc(NC(=O)[C@H](CC2CCN(C(=O)OCc3ccccc3)CC2)NC(=O)N2CCOCC2)cc1` [Compound I-214] the IC50 [2] was 0.05 to 1 µM.

`COCC[C@H](NC(=O)c1ccc(F)cc1)C(=O)Nc1ccc(S(=O)(=O)NC(C)(C)CN2CCOCC2)cc1` [Compound I-27] was tested, and the IC50 [2] was 1 to 10 µM.

For `O=C(Nc1ccc(S(=O)(=O)N[C@@H]2CCOC2)nc1)[C@@H]1C[C@@H](c2ccccc2)CN1C(=O)c1ccc(F)cc1` [Compound I-270], the IC50 [2] was 1 to 10 µM.

`CC(C)N1CCC(C[C@H](NC(=O)c2ccc(F)cc2)C(=O)Nc2ccc(S(=O)(=O)NC(C)(C)C)cc2)CC1` [Compound I-287] was tested, and the IC50 [1] was under 0.05 µM.
